From patent US9809521B2, “Cannabidinoid derivatives” (priority 2011, dated 2017) come the findings set out here.

Molecules are shown by their SMILES.

Data set [1] can be described thus: Toxicity observation in the mouse models of metastasis. Conditions: in vivo.
For the next data set, the system named is MDA-MB231 cells. The data set is described as follows: Xenograft mouse model of human breast cancer lung metastasis. Format: in vivo. Background: A xenograft is tissue or cells of one species grown in another, often human tumour cells in immunodeficient mice.
In data set [2] the test system is Id-1. The data set is described as follows: Quantitative Western analysis of Id-1 protein expression in MDA-MB231 cells. Format: cell-based, human. As to conditions: for Id-1 expression: 1 μM, both MDA-MB231 and 4T1 cells. On the procedure:
Quantitative Western analysis of Id-1 Expression in MDA-MB231 cells with CBD, Δ^9-THC, or WIN 55,212-2. The ability of CBD to regulate the expression of key genes that control breast cancer cell aggressiveness and invasiveness was determined.
SAR Analysis of Id-1 expression in MDA-MB231 cells with (Abn)-CBD receptor, Abn-CBD, O-1602, CP55,940, THC, CBN, or CBD. In order to determine the structure activity relationship (“SAR”) between cannabinoids and the inhibition of Id-1, MDA-MB231 cells were treated for two days with multiple cannabinoid compounds and Id-1 protein levels were assessed.
Quantitative Western analysis of Id-1 expression in MDA-MB231 cells and U251 cells with CBD or O-1663 CBD analog. […] MDA-MB231 breast cancer cells and U251 GBM cells were treated with 1.0 μM of cannabinoid for two days and then analyzed for Id-1 protein expression by quantitative Western analysis.

The target of a further data set is CB1 receptors (Homo sapiens, UniProt P21554). The data set is described as follows: Affinity for CB1 receptors. The format is binding.
Chain of CB1 receptors (P21554 whole entry): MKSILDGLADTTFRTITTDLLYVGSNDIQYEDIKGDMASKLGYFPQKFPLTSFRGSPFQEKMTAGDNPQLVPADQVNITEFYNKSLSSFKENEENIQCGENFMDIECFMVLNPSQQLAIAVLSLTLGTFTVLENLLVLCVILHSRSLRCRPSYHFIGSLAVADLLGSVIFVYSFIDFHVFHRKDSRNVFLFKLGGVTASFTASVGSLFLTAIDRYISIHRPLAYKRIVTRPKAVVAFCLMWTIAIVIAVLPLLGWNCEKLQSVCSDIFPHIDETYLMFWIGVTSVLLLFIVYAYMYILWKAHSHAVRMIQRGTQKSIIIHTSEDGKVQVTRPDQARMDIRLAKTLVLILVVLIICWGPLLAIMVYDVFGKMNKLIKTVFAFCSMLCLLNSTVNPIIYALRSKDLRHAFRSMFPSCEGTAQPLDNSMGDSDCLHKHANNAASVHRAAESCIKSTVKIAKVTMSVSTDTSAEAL
Data set [3] relates to SAS, HSC-2, ACCM and ACC2 cells. The data set is described as follows: Head and neck and salivary gland cancer cells: Id-1 expression, viability, invasiveness. Format: cell-based. On the procedure:
(§1) Measuring the effect of CBD on the aggressiveness of head and neck as well as salivary gland cancer cells. Head and neck cancer cell lines (SAS and HSC-2 in the upper panels) and salivary gland cancer cell lines (ACCM and ACC2 in the lower panels) were treated with CBD.

In data set [4] the test system is Id-1. The data set is described as follows: Quantitative Western analysis of Id-1 expression in U251 cells. The format is cell-based, human. On the procedure: Quantitative Western analysis of Id-1 expression in U251 cells with or without CBD treatment. To examine whether CBD would downregulate Id-1 protein expression in a GBM based cell line, quantitative Western analysis was performed with U251 cells.

For another data set, the system named is Id-1 promoter. In words: Id-1 promoter luciferase reporter assay in MDA-MB231 cells. The format is cell-based, human. As to conditions: 1.5 μM, 2 or 3 days. The procedure: Id-1 promoter reporter assays: A SacI-BspHI fragment of 2.2 kb corresponding to the 5′ upstream region of human Id-1 gene and driving a luciferase gene in a PGL-3 vector (Promega) was used (Id-1-sbsluc). Cells were plated in six well dishes in medium supplemented with 10% FBS and 5 μg/ml insulin. After 24 hours, cells were cotransfected with 6 μg of luciferase reporter plasmids and 2 μg of pCMVβ (Clontech) using Superfect reagent (Qiagen). pCMVβ contained bacterial β-galactosidase and served to control for variation in transfection efficiency. 3 hours after transfection, the cells were rinsed twice with PBS and were cultured in the absence or presence of CBD for 48-72 h. Cell pellets were lysed in 80 μl of reporter lysis buffer (Promega) for 10 min at room temperature. Lysed cells were centrifuged and supernatants harvested. Luciferase and β-gal assays were performed using Luciferase Assay System (Promega), β-Gal Assay Kit (Clontech) and a 2010 luminometer (Pharmingen).
Gene Expression Assays looking at Id-1 gene epression with CBD in MDA-MB231 cells. […] Twenty-four hours after transfection, MDA-MB231-Id-1-luc cells were treated with CBD for 2 or 3 days and luciferase activity was measured (FIG. 3, panel B and panel C). […] These findings correlated to the data obtained when the expression of the Id-1 protein was assessed by Western analysis.
For orientation: Reporter assays use an easily measured gene product as a stand-in for the process of interest.

The next data set concerns Ki67. The data set is described as follows: Immunohistochemical detection of Ki67 in lung metastatic foci. The format is in vivo, mouse. As to conditions: 1 mg/kg. The procedure:
(§2) CBD down-regulates Id-1 expression and breast cancer cell proliferation in lung metastatic foci. […] Lung tissue from mice treated with vehicle or CBD (1 mg/kg) were evaluated for Id-1 expression and Ki67, a marker of cellular proliferation (FIG. 5, panel A).
(§3) Immunohistochemical detection of Id-1 and Ki67 was performed in lung tissues of vehicle and CBD treated mice. Nuclei were stained with hematoxylin. […] The intensity of the immunohistochemical (IHC) detection of Id-1 was then graded from 0 to 4.

In a further data set the test system is SF126 cells. The data set is described as follows: MTT cell proliferation assay. Conditions: read-out: IC50, SF126; seven day treatment; 95% confidence limits in brackets. In general terms: Tetrazolium dyes change colour on reduction, which living cells bring about.
The test system of a further data set is U87 cells. In words: MTT cell proliferation assay. As to conditions: Homo sapiens, U-87 MG, 72 h, read-out: CBD IC50, U87.
A further data set relates to ACCM cells. The data set is described as follows: Lung metastasis after injection of ACCM cells. The format is in vivo, mouse. Conditions: daily treatment. On the procedure: as §1
Data set [5] deals with Id-1. In words: Immunohistochemical detection of Id-1 in lung metastatic foci. The format is in vivo, mouse. The procedure:
as §2, §3

The subject of another data set is caspase 3, 7, 9 and PARP. In words: Western analysis of caspases and PARP in U251 cells. As to conditions: THC 1.7 μM, CBD 0.4 μM, three days. Format: cell-based, human. An excerpt:
Caspases play a primary role in the regulation of programmed cell death.

The test system of another data set is Id-1 gene. The data set is described as follows: PCR of Id-1 mRNA expression in MDA-MB231 cells. Format: cell-based, human. On the procedure: Polymerase Chain Reaction: Total cellular RNA was isolated from breast cancer cells treated with vehicle control or with CBD. Transcripts for Id-1 and for β-actin were reverse transcribed using SuperscriptII Reverse TranscriptaseII (Gibco-BRL), and polymerase chain reaction performed. The 5′ and 3′ PCR primers were […] (SEQ ID NO:1) and […] (SEQ ID NO:2) for Id-1; and […] (SEQ ID NO:3) and […] (SEQ ID NO:4) for β-actin. PCR was performed in buffer containing 1 μM of each of the 5′ and 3′ PCR primer and 0.5 U of Taq polymerase using 25 cycles for amplification of Id-1 and β-actin cDNAs. The cycle conditions were 45 sec denaturation at 94° C., 45 sec annealing at 55° C., and 1 min extension at 72° C.
Gene Expression Assays looking at Id-1 gene epression with CBD in MDA-MB231 cells. […] To determine if this effect was due to the inhibition of transcription, a construct was used that contained the Id-1 promoter fused to a luciferase reporter in a PGL-3 basic vector. This construct was transiently transfected into MDA-MB231 cells. Twenty-four hours after transfection, MDA-MB231-Id-1-luc cells were treated with CBD for 2 or 3 days and luciferase activity was measured (FIG. 3, panel B and panel C). […] These findings correlated to the data obtained when the expression of the Id-1 protein was assessed by Western analysis.

`CCCCC(C)(C)c1cc(O)c(C2CCC(C3CCCCC3)CC2)c(O)c1` (centres unmarked) [Compound O-1663]: in [1], the “overt toxicity (weight, appearance, general activity)” value was “No overt toxicity”. Further, the “potency compared with CBD, human MDA-MB231 model of metastasis” value in the data set with MDA-MB231 cells (i.p. daily six weeks) is listed as “more potent than CBD”. Also, in the data set with Id-1 [2] (1.0 μM, two days, MDA-MB231 and U251 cells), the “Id-1 protein expression compared with CBD” value is given as “downregulated Id-1 protein expression to a far greater extent than CBD”. Also, the Id-1 expression entry in the data set with Id-1 [2] was “almost a complete down-regulation of Id-1 expression”. Besides, on CB1 receptors, the “affinity for CB1 receptors” value is “lower affinity for CB1 receptors in comparison to THC”.

For `C=C(C)[C@@H]1CCC(C)=C[C@H]1c1c(O)cc(CCCCC)cc1O` [CBD, cannabidiol], the “ACCM tumor cell viability and invasiveness” value in data set [3] is “significant effect on ACCM tumor cell viability and invasiveness”. Besides, in data set [3], the “Id-1 gene expression in SAS, HSC-2, ACCM, ACC2” value is “downregulated in all cell lines”. In addition, the “SAS tumor cell viability and invasiveness” value in data set [3] is “significant effect on SAS tumor cell viability and invasiveness”. For the same molecule, the Id-1 protein expression entry is recorded as “concentration-dependent inhibition of Id-1 protein expression” in the data set with Id-1 [4] and “concentration-dependent inhibition of Id-1 protein expression” in the data set on Id-1 [2] (0.1, 1.0, 1.5 μM, three days). The “luciferase activity (Id-1 promoter)” value with Id-1 promoter is listed as “significant inhibition of luciferase activity”. For the same molecule, the “reduction in the number of metastases” value in the data set with MDA-MB231 cells (MDA-MB231-luc-D3H2LN, 0.5 mg/kg and 1 mg/kg i.p. for three weeks) is no less than 70%. Moreover, in the data set with Ki67, the “Ki67 in metastatic foci” value is listed as “significant down-regulation of Ki67”. In addition, the half-maximal inhibitory concentration (IC50) – broadly, the midpoint of a concentration-inhibition curve – in the data set with SF126 cells is 730 nM; in the data set on U87 cells, 700 nM. In the data set with Id-1 [2], the Id-1 expression entry was “partial reduction of Id-1 expression”. Further, the “inhibition of Id-1 (structure activity relationship)” value in the data set on Id-1 [2] (1.5 μM, two days) is “greatest inhibition of Id-1”. Besides, the “concentration at which inhibitory effect on Id-1 expression occurred” value with Id-1 [2] (three days) was no less than 100 nM. For the same molecule, in the data set on ACCM cells, the “number of lung metastatic foci” value is recorded as “significantly reduced upon CBD treatment”. For the same molecule, in the data set on Id-1 [5] (1 mg/kg), the “lung foci strongly positive for Id-1” value amounted to 5.6%. For the same molecule, in the data set with Id-1 [5] (mouse, in vivo), the “intensity of IHC detection of Id-1, grade 0 to 4, average” value is listed as “around 1”. Further, the “caspase 3, 7, 9 and PARP” value with caspase 3, 7, 9 and PARP is “no changes in caspase activity were observed”. For the same molecule, in the data set with Id-1 gene, the “Id-1 mRNA expression” value is reported as “significantly reduced”.
